Laboratory results published in paper PMC7827406, “Structure–Activity Relationship (SAR) Study of Spautin-1 to Entail the Discovery of Novel NEK4 Inhibitors” (International Journal of Molecular Sciences, 2021).
Like-named read-outs stand apart in the source and are kept apart here.

Columns and labels:
Experiment in all cases: biochemical
Parameters in all cases: Eurofins KinaseProfiler full panel at Km ATP, residual kinase activity (%) relative to DMSO
Axl(h) = molecular target: T1, Axl(h) (Homo sapiens, UniProt P30530)
T1 sequence (P30530 1-894): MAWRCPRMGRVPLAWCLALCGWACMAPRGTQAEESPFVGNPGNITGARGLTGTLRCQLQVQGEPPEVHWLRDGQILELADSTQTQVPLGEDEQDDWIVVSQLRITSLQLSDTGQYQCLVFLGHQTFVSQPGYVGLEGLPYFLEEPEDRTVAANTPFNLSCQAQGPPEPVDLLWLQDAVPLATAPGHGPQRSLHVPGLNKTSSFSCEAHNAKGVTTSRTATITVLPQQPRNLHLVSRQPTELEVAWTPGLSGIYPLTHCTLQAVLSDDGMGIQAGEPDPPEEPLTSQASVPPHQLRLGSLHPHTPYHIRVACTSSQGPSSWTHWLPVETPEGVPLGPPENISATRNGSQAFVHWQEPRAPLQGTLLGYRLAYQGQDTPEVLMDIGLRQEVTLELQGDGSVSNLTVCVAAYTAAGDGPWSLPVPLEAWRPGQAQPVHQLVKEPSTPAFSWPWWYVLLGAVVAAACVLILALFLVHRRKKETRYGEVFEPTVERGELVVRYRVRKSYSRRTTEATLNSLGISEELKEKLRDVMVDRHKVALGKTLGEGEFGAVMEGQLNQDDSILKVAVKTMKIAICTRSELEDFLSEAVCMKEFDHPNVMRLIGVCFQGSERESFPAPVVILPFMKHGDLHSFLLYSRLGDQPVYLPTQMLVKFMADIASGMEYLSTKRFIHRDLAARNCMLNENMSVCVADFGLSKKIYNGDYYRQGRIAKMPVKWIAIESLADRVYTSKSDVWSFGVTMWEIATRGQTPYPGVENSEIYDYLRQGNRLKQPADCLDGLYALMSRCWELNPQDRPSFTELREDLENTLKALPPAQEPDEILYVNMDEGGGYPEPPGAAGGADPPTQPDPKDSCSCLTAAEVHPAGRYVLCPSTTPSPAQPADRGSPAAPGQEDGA
Summary of the method: (§1)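 Radiometric kinase activity assays were run with ATP at Km and compounds at 10 µM, and remaining activity (%) was reported. A separate competitive binding screen measured DNA-tagged kinase displaced from immobilized active-site ligands by qPCR, giving percent kinase still bound at 10 µM compound in DMSO.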

CDK1/cyclinB(h) = CDK1/cyclinB(h) (Homo sapiens, UniProt P06493)
Summary of the method: as §1

CDKL4(h) = CDKL4(h) (Homo sapiens, UniProt Q5MAI5)
CDKL4(h), sequence (Q5MAI5 whole entry): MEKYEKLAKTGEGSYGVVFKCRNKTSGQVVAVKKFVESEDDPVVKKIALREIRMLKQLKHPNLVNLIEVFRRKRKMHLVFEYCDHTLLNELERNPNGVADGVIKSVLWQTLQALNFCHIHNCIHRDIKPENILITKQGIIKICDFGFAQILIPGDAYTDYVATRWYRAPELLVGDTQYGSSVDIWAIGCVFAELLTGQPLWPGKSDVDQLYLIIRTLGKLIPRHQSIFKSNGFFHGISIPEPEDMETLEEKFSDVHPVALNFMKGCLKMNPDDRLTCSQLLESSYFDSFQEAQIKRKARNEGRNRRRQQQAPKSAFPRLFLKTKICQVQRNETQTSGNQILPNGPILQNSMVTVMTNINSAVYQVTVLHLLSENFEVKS
Summary of the method: as §1

CaMKIδ(h) = molecular target: T2, CaMKIδ(h) (Homo sapiens, UniProt Q8IU85)
T2 construct: gene CAMK1D
T2 sequence (Q8IU85 whole entry): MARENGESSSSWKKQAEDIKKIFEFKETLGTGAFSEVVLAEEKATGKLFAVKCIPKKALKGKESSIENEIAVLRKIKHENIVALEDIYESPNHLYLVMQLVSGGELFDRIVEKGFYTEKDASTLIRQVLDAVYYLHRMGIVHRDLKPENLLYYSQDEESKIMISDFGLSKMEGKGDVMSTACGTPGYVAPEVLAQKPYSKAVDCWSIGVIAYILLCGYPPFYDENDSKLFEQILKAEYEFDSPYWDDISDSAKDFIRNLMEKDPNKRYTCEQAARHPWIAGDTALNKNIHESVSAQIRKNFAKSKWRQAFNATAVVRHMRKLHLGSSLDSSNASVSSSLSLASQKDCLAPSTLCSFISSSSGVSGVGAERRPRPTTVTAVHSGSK
Summary of the method: as §1

MRCKβ(h) = molecular target: T3, MRCKβ(h) (Homo sapiens, UniProt Q9Y5S2)
T3 construct: gene CDC42BPB
T3 sequence (Q9Y5S2 whole entry): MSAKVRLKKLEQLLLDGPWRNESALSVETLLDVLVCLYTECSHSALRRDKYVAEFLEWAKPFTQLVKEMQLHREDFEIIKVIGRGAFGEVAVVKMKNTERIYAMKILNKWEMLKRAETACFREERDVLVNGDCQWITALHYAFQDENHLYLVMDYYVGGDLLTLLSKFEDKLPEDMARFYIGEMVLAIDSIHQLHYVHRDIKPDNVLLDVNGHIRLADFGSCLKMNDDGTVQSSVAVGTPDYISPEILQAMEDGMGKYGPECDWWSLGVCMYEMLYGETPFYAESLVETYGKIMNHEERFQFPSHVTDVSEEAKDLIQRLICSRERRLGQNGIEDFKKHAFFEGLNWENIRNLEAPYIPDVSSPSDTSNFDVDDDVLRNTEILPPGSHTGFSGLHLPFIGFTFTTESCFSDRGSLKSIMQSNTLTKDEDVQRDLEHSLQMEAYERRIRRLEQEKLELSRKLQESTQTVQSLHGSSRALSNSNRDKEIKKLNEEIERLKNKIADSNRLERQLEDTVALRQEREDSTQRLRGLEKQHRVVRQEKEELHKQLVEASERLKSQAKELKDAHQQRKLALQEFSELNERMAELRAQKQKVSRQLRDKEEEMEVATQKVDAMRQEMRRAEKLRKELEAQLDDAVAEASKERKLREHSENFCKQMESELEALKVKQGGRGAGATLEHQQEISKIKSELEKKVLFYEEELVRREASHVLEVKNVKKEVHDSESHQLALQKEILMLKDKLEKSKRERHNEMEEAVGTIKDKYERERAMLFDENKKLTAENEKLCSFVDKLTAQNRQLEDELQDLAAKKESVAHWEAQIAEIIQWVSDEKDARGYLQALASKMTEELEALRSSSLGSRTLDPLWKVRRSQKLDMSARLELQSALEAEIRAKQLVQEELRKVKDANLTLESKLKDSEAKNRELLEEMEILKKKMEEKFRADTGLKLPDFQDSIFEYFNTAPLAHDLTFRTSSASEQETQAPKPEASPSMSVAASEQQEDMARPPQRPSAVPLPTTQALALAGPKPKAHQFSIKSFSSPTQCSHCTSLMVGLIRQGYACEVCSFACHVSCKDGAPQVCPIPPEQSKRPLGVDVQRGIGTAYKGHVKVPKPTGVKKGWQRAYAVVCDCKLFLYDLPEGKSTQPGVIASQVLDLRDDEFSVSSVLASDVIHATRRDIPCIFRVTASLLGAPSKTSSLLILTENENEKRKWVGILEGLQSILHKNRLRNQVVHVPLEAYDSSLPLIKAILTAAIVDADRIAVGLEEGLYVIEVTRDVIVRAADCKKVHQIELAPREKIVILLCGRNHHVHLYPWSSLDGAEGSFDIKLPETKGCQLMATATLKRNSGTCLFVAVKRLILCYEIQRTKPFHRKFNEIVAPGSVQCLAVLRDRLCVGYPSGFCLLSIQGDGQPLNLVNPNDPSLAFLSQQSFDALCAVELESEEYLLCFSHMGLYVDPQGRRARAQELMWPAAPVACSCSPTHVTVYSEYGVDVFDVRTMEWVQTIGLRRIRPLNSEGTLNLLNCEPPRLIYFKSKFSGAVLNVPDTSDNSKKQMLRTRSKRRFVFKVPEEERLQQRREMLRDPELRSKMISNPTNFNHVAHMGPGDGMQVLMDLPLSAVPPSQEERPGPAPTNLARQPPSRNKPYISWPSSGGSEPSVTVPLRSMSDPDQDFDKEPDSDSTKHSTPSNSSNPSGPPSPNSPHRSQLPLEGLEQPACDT
Summary of the method: as §1

PKBβ(h) = molecular target: T4, PKBβ(h) (Homo sapiens, UniProt P31751)
T4 construct: gene AKT2
T4 sequence (P31751 whole entry): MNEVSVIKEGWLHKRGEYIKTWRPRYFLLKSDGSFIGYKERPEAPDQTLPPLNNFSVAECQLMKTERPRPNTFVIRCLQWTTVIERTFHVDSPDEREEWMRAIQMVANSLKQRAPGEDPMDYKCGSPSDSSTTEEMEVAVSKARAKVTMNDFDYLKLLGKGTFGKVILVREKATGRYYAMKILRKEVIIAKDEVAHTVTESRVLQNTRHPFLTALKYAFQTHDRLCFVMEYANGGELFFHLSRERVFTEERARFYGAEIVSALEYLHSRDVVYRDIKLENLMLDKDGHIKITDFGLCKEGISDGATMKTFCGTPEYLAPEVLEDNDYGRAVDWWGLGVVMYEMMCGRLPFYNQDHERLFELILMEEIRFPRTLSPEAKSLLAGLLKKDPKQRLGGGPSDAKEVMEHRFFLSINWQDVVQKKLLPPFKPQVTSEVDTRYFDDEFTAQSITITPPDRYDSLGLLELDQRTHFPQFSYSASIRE
Summary of the method: as §1

PhKγ1(h) = molecular target: T5, PhKγ1(h) (Homo sapiens, UniProt Q16816)
T5 construct: gene PHKG1
T5 sequence (Q16816 whole entry): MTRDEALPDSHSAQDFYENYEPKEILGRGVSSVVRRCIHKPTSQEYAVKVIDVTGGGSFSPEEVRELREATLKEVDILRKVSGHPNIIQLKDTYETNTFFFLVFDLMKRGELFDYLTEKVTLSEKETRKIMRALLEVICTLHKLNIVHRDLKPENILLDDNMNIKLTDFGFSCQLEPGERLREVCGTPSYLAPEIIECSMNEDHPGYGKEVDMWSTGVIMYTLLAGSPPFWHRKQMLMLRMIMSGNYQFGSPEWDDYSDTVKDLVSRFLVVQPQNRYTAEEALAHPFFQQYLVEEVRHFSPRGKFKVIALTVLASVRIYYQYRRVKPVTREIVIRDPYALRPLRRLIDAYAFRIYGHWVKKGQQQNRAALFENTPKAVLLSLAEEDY
Summary of the method: as §1

PrKX(h) = molecular target: T6, PrKX(h) (Homo sapiens, UniProt P51817)
T6 sequence (P51817 1-358): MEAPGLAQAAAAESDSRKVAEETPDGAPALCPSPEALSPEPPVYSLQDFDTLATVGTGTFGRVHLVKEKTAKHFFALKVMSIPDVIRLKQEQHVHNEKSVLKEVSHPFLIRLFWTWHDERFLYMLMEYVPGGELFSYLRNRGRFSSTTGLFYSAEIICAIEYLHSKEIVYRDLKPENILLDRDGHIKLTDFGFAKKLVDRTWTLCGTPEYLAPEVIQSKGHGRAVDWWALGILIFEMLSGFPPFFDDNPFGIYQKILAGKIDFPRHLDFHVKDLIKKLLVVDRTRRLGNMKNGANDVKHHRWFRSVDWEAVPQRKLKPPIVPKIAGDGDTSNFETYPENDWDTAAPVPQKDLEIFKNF
Summary of the method: as §1

Ret(h) = Ret(h) (Homo sapiens, UniProt P07949)
Ret(h), sequence (P07949 whole entry): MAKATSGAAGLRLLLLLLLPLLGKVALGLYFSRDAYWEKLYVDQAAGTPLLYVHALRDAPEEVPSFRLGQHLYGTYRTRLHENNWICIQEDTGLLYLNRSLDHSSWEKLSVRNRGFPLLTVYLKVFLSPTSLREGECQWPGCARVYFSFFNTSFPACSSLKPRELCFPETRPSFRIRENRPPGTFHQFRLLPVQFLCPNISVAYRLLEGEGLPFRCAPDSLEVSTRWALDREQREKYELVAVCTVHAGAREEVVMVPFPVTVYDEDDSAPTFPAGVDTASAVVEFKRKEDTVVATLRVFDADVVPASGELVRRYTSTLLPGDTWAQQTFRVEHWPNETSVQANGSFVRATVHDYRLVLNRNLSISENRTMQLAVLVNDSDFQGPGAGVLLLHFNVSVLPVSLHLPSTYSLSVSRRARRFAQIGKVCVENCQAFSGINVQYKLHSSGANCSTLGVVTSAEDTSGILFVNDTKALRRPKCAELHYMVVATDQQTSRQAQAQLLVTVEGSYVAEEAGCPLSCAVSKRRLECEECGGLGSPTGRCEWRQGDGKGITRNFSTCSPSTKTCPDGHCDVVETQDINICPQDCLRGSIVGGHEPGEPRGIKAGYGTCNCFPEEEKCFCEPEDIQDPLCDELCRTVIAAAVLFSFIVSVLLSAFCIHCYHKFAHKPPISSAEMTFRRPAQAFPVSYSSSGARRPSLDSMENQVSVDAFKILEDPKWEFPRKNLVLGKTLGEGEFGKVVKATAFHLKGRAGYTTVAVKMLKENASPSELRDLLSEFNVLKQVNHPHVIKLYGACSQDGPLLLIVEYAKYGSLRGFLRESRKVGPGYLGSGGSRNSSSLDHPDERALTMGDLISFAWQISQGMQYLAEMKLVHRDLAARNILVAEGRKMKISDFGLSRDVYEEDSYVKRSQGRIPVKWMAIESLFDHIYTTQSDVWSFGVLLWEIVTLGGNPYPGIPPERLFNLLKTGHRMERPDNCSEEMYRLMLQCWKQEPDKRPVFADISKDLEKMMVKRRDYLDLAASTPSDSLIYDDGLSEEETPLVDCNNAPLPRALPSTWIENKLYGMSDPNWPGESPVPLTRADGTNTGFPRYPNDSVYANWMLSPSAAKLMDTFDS
Summary of the method: as §1

STK32B(h) = STK32B(h) (Homo sapiens, UniProt Q9NY57)
STK32B(h), sequence (Q9NY57 whole entry): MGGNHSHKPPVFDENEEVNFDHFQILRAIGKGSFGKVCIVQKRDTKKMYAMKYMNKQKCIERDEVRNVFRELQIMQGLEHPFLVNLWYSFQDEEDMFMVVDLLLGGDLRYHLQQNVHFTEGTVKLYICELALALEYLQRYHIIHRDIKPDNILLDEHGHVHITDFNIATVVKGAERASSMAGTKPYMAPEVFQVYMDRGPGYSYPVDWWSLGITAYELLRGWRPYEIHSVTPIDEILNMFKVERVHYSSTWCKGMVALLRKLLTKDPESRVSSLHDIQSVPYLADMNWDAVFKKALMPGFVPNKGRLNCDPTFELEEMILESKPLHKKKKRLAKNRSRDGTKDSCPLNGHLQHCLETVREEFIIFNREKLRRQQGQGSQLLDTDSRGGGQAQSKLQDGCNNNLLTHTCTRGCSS
Summary of the method: as §1

[1] = read-out: Residual activity (%) 5ay
[2] = read-out: Residual activity (%) Spautin-1 5aa
[3] = read-out: Residual activity (%) 5at
[4] = read-out: Residual activity (%) 5as

COc1ccc2ncnc(Nc3cccc(F)c3)c2c1 [5ay, N-(3-Fluorophenyl)-6-Methoxy-4-Quinazolinamine]
remaining activity at 10 µM (Axl(h); [1]): 64%
remaining activity at 10 µM (CDK1/cyclinB(h); [1]): 72%
remaining activity at 10 µM (CDKL4(h); [1]): 38%
remaining activity at 10 µM (CaMKIδ(h); [1]): 89%
remaining activity at 10 µM (MRCKβ(h); [1]): 79%
remaining activity at 10 µM (PKBβ(h); [1]): 106%
remaining activity at 10 µM (PhKγ1(h); [1]): 121%
remaining activity at 10 µM (PrKX(h); [1]): 93%
remaining activity at 10 µM (Ret(h); [1]): 43%
remaining activity at 10 µM (STK32B(h); [1]): 93%

Fc1ccc(CNc2ncnc3ccc(F)cc23)cc1 [5aa, 6-Fluoro-N-(4-fluorobenzyl)-4-Quinazolinamine]
remaining activity at 10 µM (Axl(h); [2]): 62%
remaining activity at 10 µM (CDK1/cyclinB(h); [2]): 87%
remaining activity at 10 µM (CDKL4(h); [2]): 73%
remaining activity at 10 µM (CaMKIδ(h); [2]): 91%
remaining activity at 10 µM (MRCKβ(h); [2]): 80%
remaining activity at 10 µM (PKBβ(h); [2]): 106%
remaining activity at 10 µM (PhKγ1(h); [2]): 102%
remaining activity at 10 µM (PrKX(h); [2]): 97%
remaining activity at 10 µM (Ret(h); [2]): 69%
remaining activity at 10 µM (STK32B(h); [2]): 95%

Fc1ccc2ncnc(NCCc3ccc(Cl)cc3)c2c1 [5at, N-[2-(4-Chlorophenyl)Ethyl]-6-Fluoro-4-Quinazolinamine]
remaining activity at 10 µM (Axl(h); [3]): 75%
remaining activity at 10 µM (CDK1/cyclinB(h); [3]): 91%
remaining activity at 10 µM (CDKL4(h); [3]): 92%
remaining activity at 10 µM (CaMKIδ(h); [3]): 92%
remaining activity at 10 µM (MRCKβ(h); [3]): 103%
remaining activity at 10 µM (PKBβ(h); [3]): 75%
remaining activity at 10 µM (PhKγ1(h); [3]): 141%
remaining activity at 10 µM (PrKX(h); [3]): 112%
remaining activity at 10 µM (Ret(h); [3]): 62%
remaining activity at 10 µM (STK32B(h); [3]): 97%

Fc1ccc(CCNc2ncnc3ccc(F)cc23)cc1 [5as, 6-Fluoro-N-[2-(4-Fluorophenyl)Ethyl]-4-Quinazolinamine]
remaining activity at 10 µM (Axl(h); [4]): 90%
remaining activity at 10 µM (CDK1/cyclinB(h); [4]): 90%
remaining activity at 10 µM (CDKL4(h); [4]): 94%
remaining activity at 10 µM (CaMKIδ(h); [4]): 90%
remaining activity at 10 µM (MRCKβ(h); [4]): 84%
remaining activity at 10 µM (PKBβ(h); [4]): 84%
remaining activity at 10 µM (PhKγ1(h); [4]): 120%
remaining activity at 10 µM (PrKX(h); [4]): 97%
remaining activity at 10 µM (Ret(h); [4]): 99%
remaining activity at 10 µM (STK32B(h); [4]): 92%
